The target of one assay is Cholinesterase (Homo sapiens, UniProt P06276).
The target in the next assay is Acetylcholinesterase (Homo sapiens, UniProt P22303).
Sequence of Acetylcholinesterase (P22303 whole entry): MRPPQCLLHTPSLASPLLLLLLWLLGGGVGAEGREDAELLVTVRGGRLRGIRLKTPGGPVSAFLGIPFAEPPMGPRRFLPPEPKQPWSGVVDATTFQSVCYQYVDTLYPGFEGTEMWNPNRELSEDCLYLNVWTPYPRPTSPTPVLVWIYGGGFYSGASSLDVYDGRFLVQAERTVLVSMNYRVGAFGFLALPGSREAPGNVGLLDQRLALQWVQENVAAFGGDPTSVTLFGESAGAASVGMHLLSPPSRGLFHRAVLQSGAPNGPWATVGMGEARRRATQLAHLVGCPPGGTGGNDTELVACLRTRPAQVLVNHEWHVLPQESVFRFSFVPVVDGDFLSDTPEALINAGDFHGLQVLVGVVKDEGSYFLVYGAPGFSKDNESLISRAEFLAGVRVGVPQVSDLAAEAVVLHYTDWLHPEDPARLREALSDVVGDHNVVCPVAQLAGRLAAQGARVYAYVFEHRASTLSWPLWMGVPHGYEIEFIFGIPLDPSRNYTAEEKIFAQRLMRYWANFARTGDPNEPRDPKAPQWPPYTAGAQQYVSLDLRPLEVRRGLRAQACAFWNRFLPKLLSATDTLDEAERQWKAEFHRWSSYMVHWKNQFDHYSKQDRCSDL

Sequence of Cholinesterase (P06276 whole entry): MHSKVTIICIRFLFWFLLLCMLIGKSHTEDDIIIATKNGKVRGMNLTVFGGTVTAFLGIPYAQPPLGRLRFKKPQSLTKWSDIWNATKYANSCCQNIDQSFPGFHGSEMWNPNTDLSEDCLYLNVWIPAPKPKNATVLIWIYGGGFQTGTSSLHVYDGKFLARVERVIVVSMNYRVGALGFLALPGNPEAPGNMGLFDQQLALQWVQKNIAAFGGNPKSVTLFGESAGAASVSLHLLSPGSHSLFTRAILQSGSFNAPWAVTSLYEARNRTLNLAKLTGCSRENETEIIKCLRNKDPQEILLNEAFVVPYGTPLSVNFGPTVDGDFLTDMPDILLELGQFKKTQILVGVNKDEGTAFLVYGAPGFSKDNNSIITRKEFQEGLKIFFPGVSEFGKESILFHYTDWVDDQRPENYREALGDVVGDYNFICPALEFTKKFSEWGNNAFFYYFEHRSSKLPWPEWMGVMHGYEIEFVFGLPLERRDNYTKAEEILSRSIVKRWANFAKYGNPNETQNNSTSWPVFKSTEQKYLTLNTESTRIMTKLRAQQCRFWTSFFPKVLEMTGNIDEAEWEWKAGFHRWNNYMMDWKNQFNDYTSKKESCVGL
Description for Acetylcholinesterase: Concentration required to inhibit 50% of Acetylcholinesterase obtained from human erythrocytes was determined in vitro

Broadly, the IC50 is the concentration that gives 50% inhibition. A high value points to weaker potency in that assay. Regarding `O=C(CCC1CCN(Cc2ccccc2)CC1)c1ccc2[nH]c(-c3ccccc3)nc2c1`, the half-maximal inhibitory concentration (IC50) was 890 nM against Cholinesterase and 33 nM at Acetylcholinesterase.

`Cc1nc2cc(C(=O)CCC3CCN(Cc4ccccc4)CC3)ccc2[nH]1`: the IC50 against Cholinesterase amounted to 6200 nM; against Acetylcholinesterase, 12 nM. The corresponding values for `Cc1nc2ccc(C(=O)CCC3CCN(Cc4ccccc4)CC3)cc2s1` are 3400 nM and 6.8 nM.

The molecule `O=C(CCC1CCN(Cc2ccccc2)CC1)c1ccccc1` registered an IC50 on Cholinesterase of 4300 nM. On to `CCn1c(C)nc2cc(C(=O)CCC3CCN(Cc4ccccc4)CC3)ccc21`, for which the values for the IC50 on Cholinesterase and against Acetylcholinesterase were 4200 nM and 4.3 nM, respectively. As to `O=C(CCC1CCN(Cc2ccccc2)CC1)c1ccc2c(c1)OCCO2`, the IC50 at Cholinesterase was 4800 nM; against Acetylcholinesterase it was 30 nM.

The values above are taken from ChEMBL document CHEMBL1128725, “Design and synthesis of 1-heteroaryl-3-(1-benzyl-4-piperidinyl)propan-1-one derivatives as potent, selective acetylcholinesterase inhibitors” (J Med Chem, 1995).
